Assay results published in patent publication US7521472B2, “Crystal of two-ring heterocyclic sulfonamide compound” (Eisai R&D Management Co., Ltd., priority 2004, dated 2009).

Legend:
Format in all cases: physicochemical
[1] = Physical properties of the β-type crystal (crystal form stability, hygroscopicity)
[2] = Solubility of α-type and β-type crystals in organic solvents and water (USP 25 method); conditions: for Solvent amount (ml) required to solve 1 g of compound (1): 25° C. within 30 minutes
Method: (§1) The results are shown in Tables 5 to 8. • (1) Test method:
(§2) The solubility in organic solvents and buffer solutions (Britton-Robinson Buffer: ionic strength (I)=0.3) was examined.
(§3) Specifically, according to the method described in USP 25 (U.S. PHARMACOPEIA 25(USP25), p 8, General Notices, Solubility), crystalline N-(3-chloro-1H-indol-7-yl)-4-sulfamoylbenzenesulfonamide was evaluated in terms of solubility in various organic solvents and Britton-Robinson buffers (pH 3, 5, 7, 9, and 11; I=0.3). The amount of each solvent was recorded that was required to solve a 10-mg sample of (N-(3-chloro-1H-indol-7-yl)-4-sulfamoylbenzenesulfonamide) at 25° C. within 30 minutes. In this study, the container was vigorously shaken for 30 seconds every 5 minutes, and the solubility was visually checked. • (2) Results: […]

[3] = Solubility of α-type and β-type crystals in Britton-Robinson buffers (I=0.3); conditions: for Solvent amount (ml) required to solve 1 g of compound (1): 25° C. within 30 minutes
Method: as §1, §2, §3

[4] = Britton-Robinson Buffer pH 3, I=0.3
[5] = Britton-Robinson Buffer pH 5, I=0.3
[6] = Britton-Robinson Buffer pH 7, I=0.3
[7] = Britton-Robinson Buffer pH 9, I=0.3
[8] = Britton-Robinson Buffer pH 11, I=0.3

## NS(=O)(=O)c1ccc(S(=O)(=O)Nc2cccc3c(Cl)c[nH]c23)cc1 [compound (1) (β-type crystal), N-(3-chloro-1H-indol-7-yl)-4-sulfamoylbenzenesulfonamide]
[1]
  hygroscopicity: non hygroscopicity
[1]; transformation into other crystal forms or amorphous forms
  stability of the crystal form: stable
[2]; 1-octanol
  Solvent amount (ml) required to solve 1 g of compound (1): >10000 mL
[2]; Acetone
  Solvent amount (ml) required to solve 1 g of compound (1): 14 mL
[2]; Acetonitrile
  Solvent amount (ml) required to solve 1 g of compound (1): 74 mL
[2]; Ethanol
  Solvent amount (ml) required to solve 1 g of compound (1): 373 mL
[2]; Ethyl acetate
  Solvent amount (ml) required to solve 1 g of compound (1): 322 mL
[2]; Heptane
  Solvent amount (ml) required to solve 1 g of compound (1): >10000 mL
[2]; Isopropylether
  Solvent amount (ml) required to solve 1 g of compound (1): >10000 mL
[2]; Methanol
  Solvent amount (ml) required to solve 1 g of compound (1): 60 mL
[2]; N,N-dimethylformamide
  Solvent amount (ml) required to solve 1 g of compound (1): 6 mL
[2]; Water
  Solvent amount (ml) required to solve 1 g of compound (1): >10000 mL
[2]; for example, ethanol, ethyl acetate
  solubility in various organic solvents in comparison with the α-type crystal: high solubility
[3]; [4]
  Solvent amount (ml) required to solve 1 g of compound (1): >10000 mL
[3]; [5]
  Solvent amount (ml) required to solve 1 g of compound (1): >10000 mL
[3]; [6]
  Solvent amount (ml) required to solve 1 g of compound (1): >10000 mL
[3]; [7]
  Solvent amount (ml) required to solve 1 g of compound (1): >10000 mL
[3]; [8]
  Solvent amount (ml) required to solve 1 g of compound (1): 553 mL
[3]; Britton-Robinson Buffer, ionic strength 0.3
  solubility in the buffer solution compared with the α-type crystal: higher solubility

## NS(=O)(=O)c1ccc(S(=O)(=O)Nc2cccc3c(Cl)c[nH]c23)cc1 [compound (1) (α-type crystal), N-(3-chloro-1H-indol-7-yl)-4-sulfamoylbenzenesulfonamide, reference compound]
[2]; 1-octanol
  Solvent amount (ml) required to solve 1 g of compound (1): >10000 mL
[2]; Acetone
  Solvent amount (ml) required to solve 1 g of compound (1): 21 mL
[2]; Acetonitrile
  Solvent amount (ml) required to solve 1 g of compound (1): 97 mL
[2]; Ethanol
  Solvent amount (ml) required to solve 1 g of compound (1): 1194 mL
[2]; Ethyl acetate
  Solvent amount (ml) required to solve 1 g of compound (1): 1090 mL
[2]; Heptane
  Solvent amount (ml) required to solve 1 g of compound (1): >10000 mL
[2]; Isopropylether
  Solvent amount (ml) required to solve 1 g of compound (1): >10000 mL
[2]; Methanol
  Solvent amount (ml) required to solve 1 g of compound (1): 100.4 mL
[2]; N,N-dimethylformamide
  Solvent amount (ml) required to solve 1 g of compound (1): 9.6 mL
[2]; Water
  Solvent amount (ml) required to solve 1 g of compound (1): >10000 mL
[3]; [4]
  Solvent amount (ml) required to solve 1 g of compound (1): >10000 mL
[3]; [5]
  Solvent amount (ml) required to solve 1 g of compound (1): >10000 mL
[3]; [6]
  Solvent amount (ml) required to solve 1 g of compound (1): >10000 mL
[3]; [7]
  Solvent amount (ml) required to solve 1 g of compound (1): >10000 mL
[3]; [8]
  Solvent amount (ml) required to solve 1 g of compound (1): 993 mL
